For assay [1], the target named is CDC7/DBF4 (Homo sapiens (Human), UniProt O00311). Put plainly: CDC7 biochemical assay (ADP-Glo, MCM2 substrate). Particulars: ATP 500 uM; MCM2 400 ug/ml; CDC7/DBF4 200 nM; 180 mins at 27° C.; read-out: CDC7 enzyme IC50 (nm). The procedure:
Biochemical Assay Method N-terminal GST-tagged CDC7 and DBF4 full-length proteins were co-expressed by baculovirus insect expression (BV) system and purified by GST affinity column. Used MCM2 protein as substrate, N-terminal His tag MCM2 was expressed by E. coli and purified by His affinity column. Biochemical assay was tested in the U-shaped bottom 384 plate (corning, #4514) with a final volume of […] at 27° C. The concentration of CDC7 was optimized by the enzyme titration experiment. CDC7 kinase was diluted in assay buffer (40 mM Tris.HCl pH 7.25, 100 ug/mL BSA, and 20 mM MgCl2) to get 2.4× enzyme solutions. Compounds were dissolved in 10 mM DMSO, and series diluted in DMSO from 0.3 mM to 0.3 nM (5 concentration pts); All dilutions were diluted 30× in assay buffer to get 6× compounds solutions. MCM2 Substrate and ATP were diluted to 2.4× mixed solution. Add 2 ul test compound solution to 384 assay plate, then add 5 ul substrate/ATP mixed solution, at last add 5 ul enzyme solution, incubate at 27° C. for 180 mins. Transfer 5 ul reaction solution to another 384 assay plate, then add 5 ul ADP-Glo™ Reagent (Promega) to each well and incubate at 27° C. for 40 mins; Add 10 ul Kinase Detection Reagent (Promega) to each well and incubate at 27° C. for 30 mins. 10 uM CDC7-3 compound was used as 100% inhibition while 100% DMSO control was used as 0% inhibition. Each test has three replications at least. The final concentration of the reagents: ATP was 500 uM; MCM2 was 400 ug/ml; CDC7/DBF4 was 200 nM. The data were obtained by TECAN F200 and calculated by GraphPad Prism 5.0; IC50 values were adjusted by Dose-response-Inhibition-Variable slope model.

Assay [2] deals with COLO 205 cell line. Put plainly: Proliferation experiment in COLO 205 cell line (CellTiter-Glo). In kind it is cell-based. The following applies: Homo sapiens, COLO 205 cells, 72 hours. The method, then:
Proliferation experiment in COLO 205 cell line Tissue Culture. Cells were maintained in 10% FBS (Gibco #10099141)/RPMI 1640 (Gibco # A10491). The cells were harvested with 0.25% Trypsin/EDTA (Amresco #9002077), re-suspended in 10% FBS/RPMI 1640 and plated at 8,000 cells per well in 90 ul of media in a 96-well black plate with clear bottoms (Corning #3603). The cells were allowed to incubate overnight in a 37° C., 5% CO2 humidified tissue culture incubator. A 10-point test compound curve was prepared by serial diluting a 10 mM stock 1:3 in DMSO in a 384-well compound plate (costar #3656). The serial diluted compounds were transferred to the plate containing medium for further dilution. The final concentration was from 10 uM to 0.000508 uM. The serial diluted compounds were transferred to the plate containing cells by using a volley ([…]) and the cells were placed back in the incubator for 72 hours. Luminescent detection was carried out with CellTiter-Glo® Luminescent Cell Viability Assay (promega # G7572). Signal was read on TECAN Infinite F200.
In general terms: ATP-based viability assays read luminescence as a measure of living cells.

Structures can show the parent of a compound that is named as a salt.

Chain of CDC7/DBF4 (O00311 whole entry): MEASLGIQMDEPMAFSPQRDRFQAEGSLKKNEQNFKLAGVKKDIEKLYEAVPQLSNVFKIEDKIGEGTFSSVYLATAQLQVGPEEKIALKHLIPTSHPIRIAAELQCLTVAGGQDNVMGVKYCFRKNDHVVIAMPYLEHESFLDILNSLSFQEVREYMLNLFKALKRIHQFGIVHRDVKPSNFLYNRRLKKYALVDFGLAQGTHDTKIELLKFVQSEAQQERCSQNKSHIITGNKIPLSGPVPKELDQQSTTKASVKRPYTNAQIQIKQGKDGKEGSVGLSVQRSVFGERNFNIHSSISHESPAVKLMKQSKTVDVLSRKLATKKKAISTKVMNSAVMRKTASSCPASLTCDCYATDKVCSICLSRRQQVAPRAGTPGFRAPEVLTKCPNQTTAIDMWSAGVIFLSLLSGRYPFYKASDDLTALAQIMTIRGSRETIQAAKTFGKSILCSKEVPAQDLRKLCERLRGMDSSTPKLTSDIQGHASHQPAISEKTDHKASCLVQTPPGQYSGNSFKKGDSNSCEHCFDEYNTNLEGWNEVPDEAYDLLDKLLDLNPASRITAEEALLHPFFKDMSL
Chain of CDC7/DBF4 (Q9UBU7 whole entry partner): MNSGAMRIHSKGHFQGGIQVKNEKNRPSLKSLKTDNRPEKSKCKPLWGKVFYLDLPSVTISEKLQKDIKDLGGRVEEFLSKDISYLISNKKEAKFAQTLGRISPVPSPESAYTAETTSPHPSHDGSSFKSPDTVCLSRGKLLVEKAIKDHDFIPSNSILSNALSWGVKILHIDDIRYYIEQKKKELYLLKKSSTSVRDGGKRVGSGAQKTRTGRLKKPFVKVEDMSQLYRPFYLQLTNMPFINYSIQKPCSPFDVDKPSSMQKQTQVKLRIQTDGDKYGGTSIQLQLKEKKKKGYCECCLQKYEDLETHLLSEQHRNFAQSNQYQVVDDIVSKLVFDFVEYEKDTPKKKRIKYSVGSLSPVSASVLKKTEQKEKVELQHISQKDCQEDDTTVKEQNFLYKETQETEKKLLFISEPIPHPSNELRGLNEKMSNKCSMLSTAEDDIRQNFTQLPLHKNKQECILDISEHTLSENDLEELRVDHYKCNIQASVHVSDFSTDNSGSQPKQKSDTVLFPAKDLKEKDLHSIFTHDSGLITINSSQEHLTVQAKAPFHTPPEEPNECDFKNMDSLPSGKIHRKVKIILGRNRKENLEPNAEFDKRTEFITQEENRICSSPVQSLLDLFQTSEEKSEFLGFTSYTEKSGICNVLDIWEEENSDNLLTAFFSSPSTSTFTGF

Turning to `CC(C)[C@H](N)c1nc2cc(-c3cc(F)ncc3F)sc2c(=O)[nH]1` [Compound 7d, (S)-2-(1-amino-2-methylpropyl)-6-(2,5-difluoropyridin-4-yl)thieno[3,2-d]pyrimidin-4(3H)-one hydrochloride], in assay [1], the IC50 – broadly, the point on the concentration scale where inhibition reaches its midpoint – was 100 to 1000 nM. Further, the GI50 (in general, the concentration giving 50% growth inhibition) in assay [2] lay within 100 to 1000 nM.
Take `Cc1cc(-c2cc3nc([C@@H](N)C(C)C)[nH]c(=O)c3s2)ccn1` [Compound 7b, (S)-2-(1-amino-2-methylpropyl)-6-(2-methylpyridin-4-yl)thieno[3,2-d]pyrimidin-4(3H)-one hydrochloride]: in assay [2], the GI50 was 1000 to 10000 nM.
As to `CC(C)[C@H](N)c1nc2cc(-c3cn[nH]n3)sc2c(=O)[nH]1` [Compound 58, (S)-2-(1-amino-2-methylpropyl)-6-(2H-1,2,3-triazol-4-yl)thieno[3,2-d]pyrimidin-4(3H)-one hydrochloride], the IC50 in assay [1] fell in the range of 1000 to 10000 nM. The compound also had a GI50 in assay [2] of 1000 to 10000 nM.
Turning to `CC(C)[C@H](N)c1nc2cc(-c3cnoc3)sc2c(=O)[nH]1` [Compound 7e, (S)-2-(1-amino-2-methylpropyl)-6-(isoxazol-4-yl)thieno[3,2-d]pyrimidin-4(3H)-one hydrochloride], the IC50 in assay [1] was above 10000 nM. In assay [2], this compound returned a GI50 above 10000 nM.
On to `CC(C)[C@H](N)c1nc2cc(-c3ccncn3)sc2c(=O)[nH]1` [Compound 53, (S)-2-(1-amino-2-methylpropyl)-6-(pyrimidin-4-yl)thieno[3,2-d]pyrimidin-4(3H)-one hydrochloride], for which the IC50 in assay [1] was 100 to 1000 nM. This compound also registered a GI50 in assay [2] of 100 to 1000 nM.
As to `CC(C)[C@H](N)c1nc2cc(-c3cc[nH]n3)sc2c(=O)[nH]1` [Compound 7c, (S)-2-(1-amino-2-methylpropyl)-6-(1H-pyrazol-3-yl)thieno[3,2-d]pyrimidin-4(3H)-one hydrochloride], the 50% inhibitory concentration (IC50) in assay [1] lay in the range of 1000 to 10000 nM. Moreover, the GI50 in assay [2] is above 10000 nM.
In the same order, the values of `CC(C)[C@@H](N)c1nc2cc(-c3ccncc3F)sc2c(=O)[nH]1` [Compound 29, (R)-2-(1-amino-2-methylpropyl)-6-(3-fluoropyridin-4-yl)thieno[3,2-d]pyrimidin-4(3H)-one hydrochloride] are 1000 to 10000 nM and 1000 to 10000 nM.
For `CN[C@H](c1nc2cc(-c3ccnc(F)c3)sc2c(=O)[nH]1)C(C)C` [Compound 36, (S)-6-(2-fluoropyridin-4-yl)-2-(2-methyl-1-(methylamino)propyl)thieno[3,2-d]pyrimidin-4(3H)-one hydrochloride], in assay [2], the GI50 lay in the range of 1000 to 10000 nM.
Take `CC(C)[C@H](N)c1nc2cc(-c3ccnnc3)sc2c(=O)[nH]1` [Compound 49, (S)-2-(1-amino-2-methylpropyl)-6-(pyridazin-4-yl)thieno[3,2-d]pyrimidin-4(3H)-one hydrochloride]: the IC50 in assay [1] lay in the range of 1000 to 10000 nM. For the same compound, the GI50 in assay [2] was in the range of 1000 to 10000 nM.
For the compound `C[C@H](N)c1nc2cc(-c3ccncc3F)sc2c(=O)[nH]1` [Compound 21, (S)-2-(1-aminoethyl)-6-(3-fluoropyridin-4-yl)thieno[3,2-d]pyrimidin-4(3H)-one hydrochloride], in assay [1], the IC50 is 100 to 1000 nM. The GI50 in assay [2] was in the range of 100 to 1000 nM.
Regarding `CC(C)[C@H](N)c1nc2cc(-c3c[nH]cn3)sc2c(=O)[nH]1` [Compound 45, (S)-2-(1-amino-2-methylpropyl)-6-(1H-imidazol-4-yl)thieno[3,2-d]pyrimidin-4(3H)-one hydrochloride], the concentration for half-maximal inhibition (IC50) in assay [1] was above 10000 nM. Further, the GI50 in assay [2] was above 10000 nM.
Regarding `CC(C)[C@H](N)c1nc2cc(-c3cc[nH]c3)sc2c(=O)[nH]1` [Compound 65, (S)-2-(1-amino-2-methylpropyl)-6-(1H-pyrrol-3-yl)thieno[3,2-d]pyrimidin-4(3H)-one hydrochloride], in assay [1], the IC50 was above 10000 nM. Further, the GI50 in assay [2] is above 10000 nM.
Take `CC(C)[C@H](N)c1nc2cc(-c3ccnc(Cl)c3)sc2c(=O)[nH]1` [Compound 7a, (S)-2-(1-amino-2-methylpropyl)-6-(2-chloropyridin-4-yl)thieno[3,2-d]pyrimidin-4(3H)-one hydrochloride]: the GI50 in assay [2] lay in the range of 1000 to 10000 nM.
For the compound `N[C@H](c1nc2cc(-c3ccncc3F)sc2c(=O)[nH]1)C1CC1` [Compound 25, (S)-2-(amino(cyclopropyl)methyl)-6-(3-fluoropyridin-4-yl)thieno[3,2-d]pyrimidin-4(3H)-one hydrochloride], in assay [1], the IC50 is below 100 nM. Moreover, the GI50 in assay [2] was below 100 nM.
On to `CC[C@H](N)c1nc2cc(-c3ccncc3F)sc2c(=O)[nH]1` [Compound 13b, (S)-2-(1-aminopropyl)-6-(3-fluoropyridin-4-yl)thieno[3,2-d]pyrimidin-4(3H)-one hydrochloride], for which the IC50 in assay [1] is below 100 nM. Also, the GI50 in assay [2] was below 100 nM.
Take `CC(C)[C@H](N)c1nc2cc(N3CCNCC3)sc2c(=O)[nH]1` [Compound 67, (S)-2-(1-amino-2-methylpropyl)-6-(piperazin-1-yl)thieno[3,2-d]pyrimidin-4(3H)-one hydrochloride]: the IC50 in assay [1] fell in the range of 1000 to 10000 nM. In assay [2], this compound registered a GI50 above 10000 nM.
On to `CC[C@H](N)c1nc2cc(-c3ccnc(F)c3)sc2c(=O)[nH]1` [Compound 13a, (S)-2-(1-aminopropyl)-6-(2-fluoropyridin-4-yl)thieno[3,2-d]pyrimidin-4(3H)-one hydrochloride], for which, in assay [2], the GI50 was 100 to 1000 nM.
Consider `CC(C)(N)c1nc2cc(-c3ccnc(F)c3)sc2c(=O)[nH]1` [Compound 39, 2-(2-aminopropan-2-yl)-6-(2-fluoropyridin-4-yl)thieno[3,2-d]pyrimidin-4(3H)-one hydrochloride], for which the IC50 in assay [1] lay in the range of 1000 to 10000 nM. The GI50 in assay [2] was in the range of 1000 to 10000 nM.

Values taken from US10745410B2, “Substituted [5,6]cyclic-4(3H)-pyrimidinones as anticancer agents” (ZENJI RESEARCH LABORATORIES, priority 2017, dated 2020).
